Values of other authors as cited in patent US10912819B2, “Neuroprotective peptides derived from activity-dependent neuroprotective protein for treatment of neurological diseases” (priority 2016, dated 2021).
Like-named read-outs stand apart in the source and are kept apart here.

Tests used:
[1] = not told; cited from earlier work
[2] = test system: rabbits; conditions: cited from earlier work
[3] = test system: cornea; conditions: Kusano et al. 2010; cited from earlier work
[4] = ambient temperatures and atmospheric pressures, cited from earlier work

Row | Molecule | extent of permeation increase by preservative [1] | permeation in vitro in the presence of preservatives [1] | skin irritation ([2]; rabbit skin, 24 hour exposure) | signs of toxicity ([2]; rabbit, in vivo, 2000 mg/kg) | acute dermal LD50 ([2]; rabbits) | mortality ([2]; single dermal application of 2000 mg/kg) [%] | effect on corneal permeability [3] | period of stability ([4]; Anhydrous) [years] | period of stability ([4]; Hemihydrate) [years] | effect on cell survival [3]
1 | NC(=O)CC[C@@H]1NC(=O)[C@H](Cc2ccccc2)NC(=O)[C@H](Cc2ccc(O)cc2)NC(=O)CCSSC[C@@H](C(=O)N2CCC[C@H]2C(=O)N[C@H](CCCN=C(N)N)C(=O)NCC(N)=O)NC(=O)[C@H](CC(N)=O)NC1=O [DDAVP, desmopressin acetate] | chlorobutanol<benzalkonium<sorbate | always increased |  |  |  |  |  |  |  | 
2 | CC(C)(O)C(Cl)(Cl)Cl [chlorobutanol, trichloro-2-methyl-2-propanol] |  |  | Non-irritant | no signs of toxicity | greater than 2000 mg/kg | 10 | not chlorobutanol affect corneal permeability | 3 | 5 | 
3 | benzalkonium chloride |  |  |  |  |  |  | affect corneal permeability |  |  | adversely affected cell survival
